Laboratory results published in US10370327B2, “Ionic liquid films with multiple functionalities for surface modification of biomedical alloys” (BOARD OF REGENTS, THE UNIVERSITY OF TEXAS SYSTEM, priority 2014, dated 2019).
Read-outs that look alike come from different tables or passages of the source.

Assays:
[1] = DLS of TiO2 particles and equimolar TiO2 + ionic liquid; type: physicochemical; details: for Rh1 hydrodynamic radius: IL + TiO2, relaxation mode 1; for Rh2 hydrodynamic radius: IL + TiO2, relaxation mode 2; for Thickness of IL film on TiO2 particles: difference IL + TiO2 minus TiO2
Experimental: To evaluate the morphologic characteristics of new structures formed by TiO2+ionic liquid both DLS and SEM techniques were used. […] DLS experiments were performed with TiO2 particles only, and with solutions of equimolar amounts of TiO2+ionic liquid. The hydrodynamic radius (Rh) of pure TiO2 particles and mixture of TiO2+ionic liquid was monitored and compared in order to analyze the formation of new organized phases related to ionic liquid film adhesion on TiO2 particles. […] The value from the difference between the size of TiO2+ionic liquid and TiO2 was used to calculate ionic liquid film thickness formed on TiO2 particles.
Comparing the data between pure TiO2 and the mixtures of [DBMIM]2[Br], [DBMIM]2[BF4] and [DBMIM]2[NTf2], it can be observed that in the first relaxation mode (Rh1) a small difference was detected between the size of the particles, which can be related with the single TiO2 nanoparticles, [DBMIM]2[Br], [DBMIM]2[BF4] and [DBMIM]2[NTf2] dispersed in solution. However, in the second relaxation mode a significant difference was noted between the size of pure TiO2 nanoparticles and TiO2+ionic liquid (Table 6). It was observed that Rh2 tended to increase with ionic liquid presence, which thus indicates film formation on the particles surface. Another interesting characteristic from the DLS results is that film thickness increased with hydrophobicity of anions (FIG. 1), which is in agreement with the trend reported by Ulbricht and Wittmar, 2012.

[2] = Thermal analysis of pure ionic liquid and equimolar mixture with TiO2 nanoparticles; type: physicochemical
Experimental: In order to evaluate the affinity of ionic liquids with the titanium surface, experiments were conducted with imidazole derived ionic liquids having as contra-ion the anions Br^−, BF4^− and NTf2^−. In the study, TiO2 nanoparticles were used instead of bulk titanium in order to allow for a better understanding of the interaction of the selected ionic liquids with the Ti oxide film (TiO2). Thermal behavior of TiO2 pure (nanoparticles), ionic liquid pure and the equimolar mixture of TiO2 and the different ionic liquids attempted were evaluated. […] Based upon the loss of a glass transition and the introduction of a new melting point for the TiO2 nanoparticle and the [DBMIM]2[NTf2], without wishing to be bound by any theory, it is believed that a more organized structural arrangement is formed (Grindri, et al., 2014).

[3] = system: MC3T3-E1 cell line; test: MTT cytotoxicity assay, dose-response in MC3T3-E1 cells; type: cell-based; details: read-out: Toxicity IC50
Excerpt: Without wishing to be bound by any theory, it is believed that the ionic liquids (ILs) structures prevent the hydrophobic effects of the imidazolium cation and thus cellular uptake by the introduction of a second cationic head. These structures, which are formed by two imidazolium rings linked by an alkyl chain and anionic counterpart, may result in non-toxic compounds because the dicationic structure will not be able to penetrate and alter the physical properties of the lipid bilayer. The ionic liquids were synthesized and performed preliminary studies with the dicationic imidazolium-based IL compounds as described above, and the IC50 values were assessed through MTT assay (Gindri et al., 2014).
The ionic liquids were synthesized and performed preliminary studies with the dicationic imidazolium-based IL compounds as described above, and the IC50 values were assessed through MTT assay (Egorova et al., 2014). The toxicity of ionic liquids was accessed using MC3T3-E1 cell lines. The cells were plated in 6-well plates and after 24 h, cells were treated with media containing a range of concentrations of ionic liquids. All concentrations tested for generation of dose-response curves. A non-linear regression sigmoidal dose-response curve was fitted to each set of values to allow the calculation of IC50 values.

[4] = system: MC3T3-E1 cell line; details: monocationic analogue of IL1, comparison value; read-out: IC50 of monocationic IL; cited from earlier work
[5] = system: osteoblast-like cells (MC3T3-E1); test: Cell proliferation (MTT) on IL-coated Ti, osteoblast-like cells; type: cell-based; details: MC3T3-E1, 1 and 7 days
[6] = system: gingival epithelial (HGF-1); test: Cell proliferation (MTT) on IL-coated Ti, gingival epithelial cells; type: cell-based; details: HGF-1, 1 and 7 days
[7] = system: osteoblast-like cells (MC3T3-E1); test: Alkaline phosphatase activity / osteoblast differentiation on IL-coated Ti; type: cell-based; details: day 1 and day 7
Excerpt: FIGS. 6A-6F show osteoblast identification through alkaline phosphatase assay. Ti Control on day 1 (FIG. 6A) and day 7 (FIG. 6D) along with IL9 coated Ti shown on day 1 (FIG. 6B) and day 7 (FIG. 6E) are shown. […] Cell differentiation was observed after 7 days on Ti control and IL9 coated Ti in which osteoblast are distinguished from stem cells by the purple color of the stain as indicated by the black arrows. […] As such, these compounds can be considered to be non-toxic to cells while still maintaining anti-microbial properties.
Experiments were performed in which Ti control disks, IL9-coated Ti, and IL12-coated Ti were exposed to gingival epithelial (HGF-1) and osteoblast-like cells (MC3T3-E1) during periods of 1 and 7 days. It was observed that after 1 day both Ti control and IL-coated Ti were covered with a layer of osteoblast-like cells (FIGS. 6A & 6B) illustrating the initial cell attachment on the surface. […] In vitro and in vivo osteoblast cell differentiation can be characterized during a phase denominated matrix maturation. During this period, a high expression of alkaline phosphatase (AP) is observed and can be used as an early differentiation marker to evaluate the differentiation of stem cells into osteoblasts (Shang et al., 2014 and Wang et al., 2012). […]

[8] = system: S. mutans; test: S. mutans planktonic and biofilm CFU on IL-coated Ti in artificial saliva/BHI; type: cell-based, Streptococcus mutans
Experimental: To determine if ILs retain antimicrobial activity when applied to Ti, preliminary experiments with two ILs (IL9 and IL12) and S. mutans, an early colonizer. Control Ti, IL9-coated Ti, and IL12-coated Ti were immersed in artificial saliva/brain heart infusion (BHI) medium containing S. mutans for 24 h and 72 h. After this period, planktonic bacterial cells in the fluid medium in which disks were immersed, and biofilm cells, adhered to the disk surface, were quantified by serial dilution and plating.

For `C[n+]1ccn(CCCCCCCCn2cc[n+](C)c2)c1.F[B-](F)(F)F.F[B-](F)(F)F` [IL-13, 1,8-bis(3-methylimidazolium-1-yl) octane tetrafluorborate], the Rh1 hydrodynamic radius [1] was 0.7 nm, the Rh2 hydrodynamic radius [1] was 513.0 nm and the “Thickness of IL film on TiO2 particles” value ([1]; relaxation mode 1) was 0.1 nm. The “Thickness of IL film on TiO2 particles” value ([1]; relaxation mode 2) was 209.5 nm, the “Td1 first decomposition temperature” value ([2]; IL + TiO2 equimolar mixture) was 343.8 °C and the “Td2 second decomposition temperature” value ([2]; IL + TiO2 equimolar mixture) was 455.8 °C. The “Td1 first decomposition temperature” value ([2]; pure ionic liquid) was 346.8 °C and the “Td2 second decomposition temperature” value ([2]; pure ionic liquid) was 455.8 °C.

For “1,8-Bis(3-methylimidazolium-1-yl)octane dimethionine [IL-6]”, the IC50 [3] was 24.2 ± 10.3 mM.

For `C[n+]1ccn(CCCCCCCCCCn2cc[n+](C)c2)c1.[Br-].[Br-]` [IL-7, 1,10-Bis(3-methylimidazolium-1-yl)decane dibromide], the melting point was 130.77 °C and the IC50 ([3]; Mus musculus) was 12.3 ± 0.1 mM.

Molecule `C[n+]1ccn(CCCCCCCCCCn2cc[n+](C)c2)c1` [IL-8, 1,10-Bis(3-methylimidazolium-1-yl)decane diascorbate] has an IC50 [3] of 3.1 ± 1.2 mM.

For `CCCCCCCCn1cc[n+](C)c1` [[C8mim][Br]], the IC50 [4] is listed as 1.51 ± 0.2 mM.

Work on `C[n+]1ccn(CCCCCCCCn2cc[n+](C)c2)c1.[Br-].[Br-]` [IL-1, 1,8-bis(3-methylimidazolium-1-yl) octane bromide] yielded an IC50 ([3]; Mus musculus) of 24.6 ± 3.5 mM, a Rh1 hydrodynamic radius [1] of 0.8 nm and a Rh2 hydrodynamic radius [1] of 421.9 nm. For the same molecule, the “Thickness of IL film on TiO2 particles” value ([1]; relaxation mode 1) was 0.2 nm, the “Thickness of IL film on TiO2 particles” value ([1]; relaxation mode 2) was 118.4 nm and the “Td1 first decomposition temperature” value ([2]; IL + TiO2 equimolar mixture) was 310.0 °C. For the same molecule, the “Td2 second decomposition temperature” value ([2]; IL + TiO2 equimolar mixture) was 372.9 °C and the “Td1 first decomposition temperature” value ([2]; pure ionic liquid) was 307.5 °C.

With `C[n+]1ccn(CCCCCCCCCCn2cc[n+](C)c2)c1.NC(Cc1ccccc1)C(=O)[O-].NC(Cc1ccccc1)C(=O)[O-]` [IL-9, 1,10-Bis(3-methylimidazolium-1-yl)decane diphenylalanine] the “Cell proliferation versus Ti control” value [5] was “did not show significant differences”, the “Cell proliferation versus Ti control” value [6] was “did not show significant differences” and the “ALP activity / cell differentiation versus Ti control” value [7] was “without statistically significant differences”. The IC50 [3] was 8.5 ± 1.5 mM, the “Anti-S. mutans activity of coated surface” value ([8]; 72 h trial) was “retain significant anti-S. mutans activity” and the “S. mutans recovered from coated Ti surfaces” value ([8]; biofilm cells after 24 h, control Ti ~10^6 CFU) was ~10^2 CFU.

In the case of “1,8-Bis(3-methylimidazolium-1-yl)octane diphenylalanine [IL-3]”, the IC50 [3] is reported as 8.3 ± 3 mM.

For `CC(C)C[C@H](N)C(=O)O.CC(C)C[C@H](N)C(=O)O.C[n+]1ccn(CCCCCCCCCCn2cc[n+](C)c2)c1` [IL-10, 1,10-Bis(3-methylimidazolium-1-yl)decane dileucine], the IC50 [3] was 12.3 ± 0.5 mM.

With “1,8-bis(3-methylimidazolium-1-yl)octane bis (trifluoromethane) sulfonimide [IL-14]” the Rh1 hydrodynamic radius [1] was 1.6 nm, the Rh2 hydrodynamic radius [1] was 894.6 nm and the “Thickness of IL film on TiO2 particles” value ([1]; relaxation mode 1) was 0.9 nm. The “Thickness of IL film on TiO2 particles” value ([1]; relaxation mode 2) was 591.1 nm, the “Td1 first decomposition temperature” value ([2]; IL + TiO2 equimolar mixture) was 463 °C and the “Td1 first decomposition temperature” value ([2]; pure ionic liquid) was 473 °C.

Molecule “1,8-Bis(3-methylimidazolium-1-yl)octane dileucine [IL-4]” has an IC50 [3] of 12.5 ± 0.2 mM.

In the case of “1,8-Bis(3-methylimidazolium-1-yl)octane diascorbate [IL-2]”, the IC50 [3] is reported as 3.6 ± 0.6 mM.

With `CSCC[C@H](N)C(=O)O.CSCC[C@H](N)C(=O)O.C[n+]1ccn(CCCCCCCCCCn2cc[n+](C)c2)c1` [IL-12, 1,10-Bis(3-methylimidazolium-1-yl)decane dimethionine] the IC50 [3] was 13.9 ± 2.7 mM and the “Antimicrobial activity of coated Ti against S. mutans” value ([8]; 24 h and 72 h immersion) was “did not show significant antimicrobial activity”.

For “1,8-Bis(3-methylimidazolium-1-yl)octane dihistidine [IL-5]”, the IC50 [3] was 25.7 ± 8.7 mM.

`C[n+]1ccn(CCCCCCCCCCn2cc[n+](C)c2)c1.N[C@@H](Cc1c[nH]cn1)C(=O)O.N[C@@H](Cc1c[nH]cn1)C(=O)O` [IL-11, 1,10-Bis(3-methylimidazolium-1-yl)decane dihistidine] showed an IC50 [3] of 12.9 ± 1.1 mM.
